PubChem BioAssay (NCI)
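Method: 48-hour compound exposure of cells in 96-well plates, five concentrations, linear interpolation of endpoints. At the GI50, growth is halved. TGI: concentration producing complete growth inhibition.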

What was measured:
Test in all cases: inhibition of tumour cell growth, NCI panel, 48 h
786-0 renal = system: 786-0 renal
A498 renal = system: A498 renal
A549 NSCLC = system: A549 NSCLC
ACHN renal = system: ACHN renal
BT-549 breast = system: BT-549 breast
CAKI-1 renal = system: CAKI-1 renal
CCRF-CEM leukemia = system: CCRF-CEM leukemia
COLO 205 colon = system: COLO 205 colon
DU-145 prostate = system: DU-145 prostate
EKVX NSCLC = system: EKVX NSCLC
HCC-2998 colon = system: HCC-2998 colon
HCT-116 colon = system: HCT-116 colon
HL-60(TB) leukemia = system: HL-60(TB) leukemia
HOP-62 NSCLC = system: HOP-62 NSCLC
HOP-92 NSCLC = system: HOP-92 NSCLC
HS 578T breast = system: HS 578T breast
HT29 colon = system: HT29 colon
IGROV1 ovarian = system: IGROV1 ovarian
KM12 colon = system: KM12 colon
LOX IMVI melanoma = system: LOX IMVI melanoma
M14 melanoma = system: M14 melanoma
MALME-3M melanoma = system: MALME-3M melanoma
MCF7 breast = system: MCF7 breast
MDA-MB-231 breast = system: MDA-MB-231 breast
MDA-MB-435 = system: MDA-MB-435
MDA-MB-468 breast = system: MDA-MB-468 breast
MOLT-4 leukemia = system: MOLT-4 leukemia
NCI-H226 lung = system: NCI-H226 lung
NCI-H23 lung = system: NCI-H23 lung
NCI-H460 lung = system: NCI-H460 lung
NCI-H522 lung = system: NCI-H522 lung
NCI/ADR-RES ovarian = system: NCI/ADR-RES ovarian
OVCAR-3 ovarian = system: OVCAR-3 ovarian
OVCAR-4 ovarian = system: OVCAR-4 ovarian
OVCAR-5 ovarian = system: OVCAR-5 ovarian
OVCAR-8 ovarian = system: OVCAR-8 ovarian
PC-3 prostate = system: PC-3 prostate
RPMI-8226 leukemia = system: RPMI-8226 leukemia
RXF 393 renal = system: RXF 393 renal
SF-268 CNS = system: SF-268 CNS
SF-295 CNS = system: SF-295 CNS
SF-539 CNS = system: SF-539 CNS
SK-MEL-2 melanoma = system: SK-MEL-2 melanoma
SK-MEL-28 melanoma = system: SK-MEL-28 melanoma
SK-MEL-5 melanoma = system: SK-MEL-5 melanoma
SK-OV-3 ovarian = system: SK-OV-3 ovarian
SN12C renal = system: SN12C renal
SNB-19 CNS = system: SNB-19 CNS
SNB-75 CNS = system: SNB-75 CNS
SW-620 colon = system: SW-620 colon
T-47D breast = system: T-47D breast
TK-10 renal = system: TK-10 renal
U251 CNS = system: U251 CNS
UACC-257 melanoma = system: UACC-257 melanoma
UACC-62 melanoma = system: UACC-62 melanoma
UO-31 renal = system: UO-31 renal

Question: Which GI50 (786-0 renal) does the source give for `CCCCSc1nc(Nc2ccc(S(N)(=O)=O)cc2)c(C#N)c(-c2ccc(Cl)cc2)n1` here?
Answer: 1.98 µM

Question: And the TGI (786-0 renal)?
Answer: 5.11 µM

Question: What about the GI50 (A498 renal) of the same compound?
Answer: 6.41 µM

Question: And the TGI (A498 renal)?
Answer: 27.8 µM

Question: What about the GI50 (A549 NSCLC) of the same compound?
Answer: 2.61 µM

Question: And the TGI (A549 NSCLC)?
Answer: 9.81 µM

Question: What about the GI50 (ACHN renal) of the same compound?
Answer: 1.88 µM

Question: What about the TGI (ACHN renal) of the same compound?
Answer: 3.67 µM

Question: What about the GI50 (BT-549 breast) of the same compound?
Answer: 17.9 µM

Question: And the TGI (BT-549 breast)?
Answer: 62 µM

Question: And the GI50 (CAKI-1 renal)?
Answer: 1.94 µM

Question: What about the TGI (CAKI-1 renal) of the same compound?
Answer: 4.8 µM

Question: What about the GI50 (CCRF-CEM leukemia) of the same compound?
Answer: 7.69 µM

Question: And the TGI (CCRF-CEM leukemia)?
Answer: > 100 µM

Question: And the GI50 (COLO 205 colon)?
Answer: 13.4 µM

Question: And the TGI (COLO 205 colon)?
Answer: 42.9 µM

Question: And the GI50 (DU-145 prostate)?
Answer: 4.95 µM

Question: What about the TGI (DU-145 prostate) of the same compound?
Answer: 18 µM

Question: What about the GI50 (EKVX NSCLC) of the same compound?
Answer: 3.51 µM

Question: And the TGI (EKVX NSCLC)?
Answer: 19.7 µM

Question: And the GI50 (HCC-2998 colon)?
Answer: 6.56 µM

Question: And the TGI (HCC-2998 colon)?
Answer: 78.3 µM

Question: And the GI50 (HCT-116 colon)?
Answer: 2 µM

Question: And the TGI (HCT-116 colon)?
Answer: 4.35 µM

Question: And the GI50 (HL-60(TB) leukemia)?
Answer: 50.6 µM

Question: What about the TGI (HL-60(TB) leukemia) of the same compound?
Answer: > 100 µM

Question: What about the GI50 (HOP-62 NSCLC) of the same compound?
Answer: 2.18 µM

Question: And the TGI (HOP-62 NSCLC)?
Answer: 4.97 µM

Question: And the GI50 (HOP-92 NSCLC)?
Answer: 1.01 µM

Question: And the TGI (HOP-92 NSCLC)?
Answer: 4.71 µM

Question: And the GI50 (HS 578T breast)?
Answer: 2.46 µM

Question: What about the TGI (HS 578T breast) of the same compound?
Answer: 8.71 µM

Question: And the GI50 (HT29 colon)?
Answer: 2.73 µM

Question: And the TGI (HT29 colon)?
Answer: 9.84 µM

Question: And the GI50 (IGROV1 ovarian)?
Answer: 5.79 µM

Question: What about the TGI (IGROV1 ovarian) of the same compound?
Answer: 41.3 µM

Question: What about the GI50 (KM12 colon) of the same compound?
Answer: 6.26 µM

Question: And the TGI (KM12 colon)?
Answer: 30.2 µM

Question: And the GI50 (LOX IMVI melanoma)?
Answer: 1.72 µM

Question: And the TGI (LOX IMVI melanoma)?
Answer: 3.33 µM

Question: What about the GI50 (M14 melanoma) of the same compound?
Answer: 2.36 µM

Question: What about the TGI (M14 melanoma) of the same compound?
Answer: 6.09 µM

Question: What about the GI50 (MALME-3M melanoma) of the same compound?
Answer: 3.03 µM

Question: And the TGI (MALME-3M melanoma)?
Answer: 11 µM

Question: What about the GI50 (MCF7 breast) of the same compound?
Answer: 4.59 µM

Question: What about the TGI (MCF7 breast) of the same compound?
Answer: > 100 µM

Question: What about the GI50 (MDA-MB-231 breast) of the same compound?
Answer: 2.14 µM

Question: What about the TGI (MDA-MB-231 breast) of the same compound?
Answer: 5.3 µM

Question: What about the GI50 (MDA-MB-435) of the same compound?
Answer: 4.01 µM

Question: What about the TGI (MDA-MB-435) of the same compound?
Answer: > 100 µM

Question: What about the GI50 (MDA-MB-468 breast) of the same compound?
Answer: 14.5 µM

Question: What about the TGI (MDA-MB-468 breast) of the same compound?
Answer: 36.1 µM

Question: And the GI50 (MOLT-4 leukemia)?
Answer: 3.15 µM

Question: And the TGI (MOLT-4 leukemia)?
Answer: 20.1 µM

Question: And the GI50 (NCI-H226 lung)?
Answer: 2.29 µM

Question: And the TGI (NCI-H226 lung)?
Answer: 6 µM

Question: And the GI50 (NCI-H23 lung)?
Answer: 3.43 µM

Question: What about the TGI (NCI-H23 lung) of the same compound?
Answer: 12.4 µM

Question: What about the GI50 (NCI-H460 lung) of the same compound?
Answer: 2.08 µM

Question: What about the TGI (NCI-H460 lung) of the same compound?
Answer: 4.66 µM

Question: What about the GI50 (NCI-H522 lung) of the same compound?
Answer: 10.6 µM

Question: And the TGI (NCI-H522 lung)?
Answer: 70.5 µM

Question: And the GI50 (NCI/ADR-RES ovarian)?
Answer: 2.98 µM

Question: What about the TGI (NCI/ADR-RES ovarian) of the same compound?
Answer: 9.58 µM

Question: And the GI50 (OVCAR-3 ovarian)?
Answer: 2.23 µM

Question: What about the TGI (OVCAR-3 ovarian) of the same compound?
Answer: 4.91 µM

Question: And the GI50 (OVCAR-4 ovarian)?
Answer: 1.83 µM

Question: What about the TGI (OVCAR-4 ovarian) of the same compound?
Answer: 3.89 µM

Question: And the GI50 (OVCAR-5 ovarian)?
Answer: 4.77 µM

Question: What about the TGI (OVCAR-5 ovarian) of the same compound?
Answer: 22.9 µM

Question: And the GI50 (OVCAR-8 ovarian)?
Answer: 2.08 µM

Question: What about the TGI (OVCAR-8 ovarian) of the same compound?
Answer: 4.93 µM

Question: What about the GI50 (PC-3 prostate) of the same compound?
Answer: 5.39 µM

Question: What about the TGI (PC-3 prostate) of the same compound?
Answer: 26 µM

Question: And the GI50 (RPMI-8226 leukemia)?
Answer: 5.17 µM

Question: And the TGI (RPMI-8226 leukemia)?
Answer: > 100 µM

Question: What about the GI50 (RXF 393 renal) of the same compound?
Answer: 1.81 µM

Question: What about the TGI (RXF 393 renal) of the same compound?
Answer: 5.12 µM

Question: What about the GI50 (SF-268 CNS) of the same compound?
Answer: 5.64 µM

Question: What about the TGI (SF-268 CNS) of the same compound?
Answer: 42.1 µM

Question: And the GI50 (SF-295 CNS)?
Answer: 1.82 µM

Question: What about the TGI (SF-295 CNS) of the same compound?
Answer: 3.78 µM

Question: And the GI50 (SF-539 CNS)?
Answer: 1.62 µM

Question: What about the TGI (SF-539 CNS) of the same compound?
Answer: 3.23 µM

Question: What about the GI50 (SK-MEL-2 melanoma) of the same compound?
Answer: 27.6 µM

Question: And the TGI (SK-MEL-2 melanoma)?
Answer: > 100 µM

Question: And the GI50 (SK-MEL-28 melanoma)?
Answer: 5.98 µM

Question: What about the TGI (SK-MEL-28 melanoma) of the same compound?
Answer: 31.1 µM

Question: And the GI50 (SK-MEL-5 melanoma)?
Answer: 8.46 µM

Question: What about the TGI (SK-MEL-5 melanoma) of the same compound?
Answer: 33.5 µM

Question: And the GI50 (SK-OV-3 ovarian)?
Answer: 3.63 µM

Question: And the TGI (SK-OV-3 ovarian)?
Answer: 14.1 µM

Question: What about the GI50 (SN12C renal) of the same compound?
Answer: 2.08 µM

Question: And the TGI (SN12C renal)?
Answer: 8.71 µM

Question: What about the GI50 (SNB-19 CNS) of the same compound?
Answer: 3.65 µM

Question: And the TGI (SNB-19 CNS)?
Answer: 15.7 µM

Question: What about the GI50 (SNB-75 CNS) of the same compound?
Answer: 1.1 µM

Question: What about the TGI (SNB-75 CNS) of the same compound?
Answer: 3.22 µM

Question: What about the GI50 (SW-620 colon) of the same compound?
Answer: 3.3 µM

Question: And the TGI (SW-620 colon)?
Answer: 12.4 µM

Question: And the GI50 (T-47D breast)?
Answer: 19.9 µM

Question: What about the TGI (T-47D breast) of the same compound?
Answer: > 100 µM

Question: And the GI50 (TK-10 renal)?
Answer: 2.32 µM

Question: What about the TGI (TK-10 renal) of the same compound?
Answer: 6.86 µM

Question: What about the GI50 (U251 CNS) of the same compound?
Answer: 1.58 µM

Question: And the TGI (U251 CNS)?
Answer: 3.28 µM

Question: And the GI50 (UACC-257 melanoma)?
Answer: 14.9 µM

Question: And the TGI (UACC-257 melanoma)?
Answer: > 100 µM

Question: And the GI50 (UACC-62 melanoma)?
Answer: 2.8 µM

Question: What about the TGI (UACC-62 melanoma) of the same compound?
Answer: 8.98 µM

Question: What about the GI50 (UO-31 renal) of the same compound?
Answer: 2 µM

Question: What about the TGI (UO-31 renal) of the same compound?
Answer: 6.33 µM
